In US11667675B2, “MASP inhibitory compounds and uses thereof” (Bayer Aktiengesellschaft, priority 2019, dated 2023):

How the values were obtained:
[1] = molecular target: T1, human MASP1 (Homo sapiens, UniProt P48740); test: Biochemical human MASP1 assay (FRET substrate); conditions: average IC50
T1 construct: Ig-kappa secretion signal (N, cleaved yes); made in house; host or cells: HEK293 (ATCC No. CRL-1573)
T1 sequence (P48740 297-448): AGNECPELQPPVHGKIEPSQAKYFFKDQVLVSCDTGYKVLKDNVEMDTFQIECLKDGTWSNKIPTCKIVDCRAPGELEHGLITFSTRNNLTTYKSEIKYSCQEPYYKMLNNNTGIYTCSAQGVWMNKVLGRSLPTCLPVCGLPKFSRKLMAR
T1 sequence (P48740 449-699): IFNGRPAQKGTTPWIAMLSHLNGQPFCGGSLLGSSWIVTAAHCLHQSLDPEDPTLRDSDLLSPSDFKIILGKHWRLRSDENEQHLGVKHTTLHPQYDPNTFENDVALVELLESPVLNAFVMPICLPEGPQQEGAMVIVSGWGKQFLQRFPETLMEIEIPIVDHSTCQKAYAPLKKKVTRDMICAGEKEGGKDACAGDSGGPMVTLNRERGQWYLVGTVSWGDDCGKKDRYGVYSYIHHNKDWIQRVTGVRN
Description: 2.1 Recombinant Expression and Protein Production of Recombinant Human MASP1 and MASP2 Active Proteases.
The MASP1 or MASP2 expression vectors were transfected into the HEK293 (ATCC No. CRL-1573) cell line using Lipofectamine LTX® Reagent (Thermo-Fischer), as described by the manufacturer. […] The MASP1 and MASP2 proteins were purified from the conditioned media by affinity chromatography on Ni-NTA Superflow resin (Qiagen) as described by the manufacturer.
2.2 Biochemical Human MASP1 Assay
Recombinant human MASP1 enzyme produced in the HEK 293 cells was diluted in the reaction buffer (50 mM HEPES pH 8,0; 100 mM NaCl; 0.01% CHAPS; 0.5 mM Gluthathione) to the concentration of 20 nM and 25 μl was transferred into each single well of 384-well white microtiter plate (Greiner Bio One 781075). 1 μl of the inhibitor compound solution (dissolved in DMSO, at the corresponding concentration) or pure DMSO as a control was added to the same wells. […] The microtiter plate was incubated for 60-120 min at the temperature of 32 C. The increase of fluorescence intensity was measured in appropriate fluorescence plate reader (e.g. TECAN Ultra) using excitation wavelength of 320 nm and emission wavelength of 420 nm. IC50 values were calculated from percentage of inhibition of human MASP1 activity as a function of test compound concentration.

[2] = system: Human C3-[…]; test: C3 deposition assay, human serum on mannan-coated plates; type: biochemical; conditions: average IC50, read-out: Human C3-DEPOSITION SERUM IC50
Method: (§1) 3. C3 Deposition Assay (Human, Rat, Mouse, Dog, Mini-Pig)
(§2) The C3 deposition assay was conducted essentially as described (reference). Multi well plates (Greiner-Nunc 384 Maxi Sorp #464718) were coated over night with Mannan from Saccharomyces cerevisiae (Sigma M7504, 10 μg/mL in 0.05 M carbonate-bicarbonate buffer, pH 9.6) at 4° C. Wells were washed three times with TBS and subsequently incubated for 2 hours with 50 μL of 1% bovine serum albumin (BSA) in Tris-buffered saline (TBS) at 37° C. in order to block non-specific binding. After this step and each of the following incubation steps wells were washed three times with C3 wash buffer (TBS; 0.05% Tween 20; 5 mM CaCl2). […] When appropriately developed the color reaction was stopped by addition of 25 μL of stop solution (Sigma S5814) and quantified on a photometer by measuring absorption at a wavelength of 450 nm. Antibodies were diluted in C3 wash buffer supplemented with 0.5% BSA.

[3] = molecular target: T2, rat MASP1 (Rattus norvegicus, UniProt Q8CHN8); test: Biochemical rat MASP1 assay (FRET substrate); conditions: average IC50; recombinant rat MASP1, FRET substrate
T2 construct: Ig-kappa secretion signal (N, cleaved yes); made in house; host or cells: HEK293 (ATCC No. CRL-1573)
T2 sequence (Q8CHN8 302-453 limits assumed): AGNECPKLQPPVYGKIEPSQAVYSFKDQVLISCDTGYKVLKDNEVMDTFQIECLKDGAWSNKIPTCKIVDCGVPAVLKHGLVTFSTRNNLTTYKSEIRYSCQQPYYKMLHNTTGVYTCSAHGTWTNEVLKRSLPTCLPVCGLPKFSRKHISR
T2 sequence (Q8CHN8 454-704 limits assumed): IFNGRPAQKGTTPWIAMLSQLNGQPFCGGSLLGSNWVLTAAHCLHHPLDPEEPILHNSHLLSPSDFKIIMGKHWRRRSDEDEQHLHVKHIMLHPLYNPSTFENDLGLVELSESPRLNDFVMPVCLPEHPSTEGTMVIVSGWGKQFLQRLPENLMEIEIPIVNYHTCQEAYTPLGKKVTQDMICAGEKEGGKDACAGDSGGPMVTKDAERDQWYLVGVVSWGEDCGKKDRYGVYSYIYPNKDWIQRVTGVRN
Description: (§3) 4. Biochemical Rat MASP-1 and MASP-2 Assay
(§4) 4.1 Recombinant Expression and Protein Production of Recombinant Human and Rat MASP1 and MASP2 Active Proteases.
A truncated cDNA sequence of rat MASP1 encoding the fragment corresponding to the amino acids 302-704 with an C-terminal His Tag and N-terminal Ig-kappa secretion signal (SEQ ID No: 4) was subcloned into the mammalian expression vector pcDNA3.1 (Invitrogen).
(§5) The MASP1 or MASP2 expression vectors were transfected into the HEK293 (ATCC No. CRL-1573) cell line using Lipofectamine LTX® Reagent (Thermo-Fischer), as described by the manufacturer. The mature form of the recombinant rat MASP1 and MASP2 proteases were secreted into the culture medium. The MASP1 and MASP2 proteins were purified from the conditioned media by affinity chromatography on Ni-NTA Superflow resin (Qiagen) as described by the manufacturer.
4.2 Biochemical Rat MASP1 Assay.
Recombinant rat MASP1 enzyme produced in the HEK 293 cells was diluted in the reaction buffer (50 mM HEPES pH 8,0; 100 mM NaCl; 0.01% CHAPS; 0.5 mM Gluthathione) to the concentration of 4 nM and 25 μl was transferred into each single well of 384-well white microtiter plate (Greiner Bio One 781075). 1 μl of the inhibitor compound solution (dissolved in DMSO, at the corresponding concentration) or pure DMSO as a control was added to the same wells. The enzymatic reaction was initiated by addition of 25 μl of 40 μM solution of the FRET substrate Dabcyl-[…]-Glu(Edans)-NH2 (SEQ ID NO: 8); (Dabcyl—4-((4-(dimethylamino)phenyl)azo)benzoic acid; Edans—5-[(2-Aminoethyl) amino]naphthalene-1-sulfonyl; custom synthesis by Jerini Peptide Technologies, Berlin) in the reaction buffer. The microtiter plate was incubated for 60-120 min at the temperature of 32 C. The increase of fluorescence intensity was measured in appropriate fluorescence plate reader (e.g. TECAN Ultra) using excitation wavelength of 340 nm and emission wavelength of 490 nm. IC50 values were calculated from percentage of inhibition of rat […] activity as a function of test compound concentration.

[4] = molecular target: T3, rat MASP2 (Rattus norvegicus, UniProt Q9JJS8); test: Biochemical rat MASP2 assay (FRET substrate); conditions: average IC50; recombinant rat MASP2, FRET substrate
T3 construct: Ig-kappa secretion signal (N, cleaved yes); made in house; host or cells: HEK293 (ATCC No. CRL-1573)
T3 sequence (Q9JJS8 296-443): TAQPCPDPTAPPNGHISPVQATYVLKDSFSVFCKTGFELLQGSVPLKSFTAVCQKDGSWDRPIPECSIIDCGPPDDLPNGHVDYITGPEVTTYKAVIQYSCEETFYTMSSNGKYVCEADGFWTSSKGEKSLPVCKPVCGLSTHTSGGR
T3 sequence (Q9JJS8 444-685): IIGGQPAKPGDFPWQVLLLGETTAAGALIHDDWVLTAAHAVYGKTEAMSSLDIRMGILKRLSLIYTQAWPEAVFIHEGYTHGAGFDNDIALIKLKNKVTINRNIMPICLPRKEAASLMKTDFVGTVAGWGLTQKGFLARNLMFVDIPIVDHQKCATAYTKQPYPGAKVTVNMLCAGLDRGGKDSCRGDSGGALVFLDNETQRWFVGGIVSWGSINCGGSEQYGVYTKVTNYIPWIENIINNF
Description: as §3, §4, §5
4.3 Biochemical Rat MASP2 Assay.
Recombinant rat MASP2 enzyme produced in the HEK 293 cells was diluted in the reaction buffer (50 mM HEPES pH 8,0; 100 mM NaCl; 0.01% CHAPS; 0.5 mM Gluthathione) to the concentration of 20 nM and 25 μl was transferred into each single well of 384-well white microtiter plate (Greiner Bio One 781075). 1 μl of the inhibitor compound solution (dissolved in DMSO, at the corresponding concentration) or pure DMSO as a control was added to the same wells. The enzymatic reaction was initiated by addition of 25 μl of 30 μM solution of the FRET substrate Abz-IEGRTSED-(Lys)Dnp-NH2 (SEQ ID NO: 9); (ABZ—2-aminobenzoyl; DNP_2,4-dinitrophenyl; custom synthesis by Jerini Peptide Technologies, Berlin) in the reaction buffer. The microtiter plate was incubated for 60-120 min at the temperature of 32 C. The increase of fluorescence intensity was measured in appropriate fluorescence plate reader (e.g. TECAN Ultra) using excitation wavelength of 320 nm and emission wavelength of 420 nm. IC50 values were calculated from percentage of inhibition of rat […] activity as a function of test compound concentration.

[5] = system: rat C3-[…]; test: C3 deposition assay, rat serum on mannan-coated plates; type: biochemical; conditions: average IC50
Method: as §1, §2

CC[C@H](C)[C@H](NC(=O)[C@H](C)N)C(=O)N[C@H]1CSSC(C)(C)[C@@H](C(=O)N[C@H](C(=O)N2CCC[C@H]2C(=O)N[C@@H](CC(=O)O)C(N)=O)[C@@H](C)CC)NC(=O)[C@H]([C@@H](C)CC)NC(=O)[C@@H]2C[C@@H]3CCCC[C@@H]3N2C(=O)[C@@H]2CCCN2C(=O)[C@H](CC(C)C)NC(=O)[C@H](CO)NC(=O)[C@H](CCCNC(=N)N)NC(=O)[C@H](CO)NC1=O [Example 75, AIC+SRSLP-(Oic)-I-(Pen)+IPD-NH2]
IC50 [1]: 2.23 nM | IC50 [2]: 32 nM | IC50 [3]: 35 nM | IC50 [4]: 34.9 nM | IC50 [5]: 183 nM
